In patent US20260265329A1, “POLYPEPTIDE AND DERIVATIVE THEREOF, COMPOSITION, AND USE THEREOF” (HANGZHOU SCIWIND BIOSCIENCES CO., LTD., priority 2023, published 2026):
Starred links: 1 amine or outer side, 2 acyl side, 3 side chain; linkers in the order of their positions; H or OH if unused. Non-standard residues stand in square brackets, D forms with d. Residues, ends and D or L forms follow the SMILES beside them. ξ: configuration not given here. *: point of attachment. C20 diacid = O=C(O)CCCCCCCCCCCCCCCCCCC(=O)*; γGlu = O=C(O)[C@H](CCC(=O)[*:2])N[*:1]; Hyp = O=C(O)[C@@H]1C[C@@H](O)CN1; ξαMeN = CC(N)(CC(N)=O)C(=O)O

How the values were obtained:
human amylin receptors = target: T1, human amylin receptors (Homo sapiens, UniProt O60896+P30988); assay: Luciferase assay in stably transfected amylin receptor/CRE-luc CHO cell line; format: cell-based; settings: for Relative activity: EC50 ratio of Cagrilintide to the compound, Cagrilintide 100%; for EC50: amylin receptor/CRE-luc CHO cells, 24 hours incubation, luminescence
T1 construct: host or cells: CHO-K1/Ga15/AMY3 cells, further stably transfected with a CRE-luciferase plasmid
T1 sequence (P30988 25-474): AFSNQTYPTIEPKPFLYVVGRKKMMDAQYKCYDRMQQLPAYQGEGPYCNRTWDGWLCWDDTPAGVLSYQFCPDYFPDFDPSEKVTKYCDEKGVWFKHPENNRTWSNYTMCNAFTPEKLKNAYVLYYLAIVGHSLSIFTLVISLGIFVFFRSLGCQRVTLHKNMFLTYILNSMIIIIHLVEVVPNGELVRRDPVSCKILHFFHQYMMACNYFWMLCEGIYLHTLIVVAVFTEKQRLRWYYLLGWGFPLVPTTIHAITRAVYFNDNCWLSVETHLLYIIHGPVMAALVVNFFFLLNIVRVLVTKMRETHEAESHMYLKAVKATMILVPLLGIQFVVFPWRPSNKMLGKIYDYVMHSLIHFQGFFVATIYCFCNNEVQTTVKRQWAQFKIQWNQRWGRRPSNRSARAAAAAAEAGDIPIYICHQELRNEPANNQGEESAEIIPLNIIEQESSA
T1 sequence (O60896 24-148 partner): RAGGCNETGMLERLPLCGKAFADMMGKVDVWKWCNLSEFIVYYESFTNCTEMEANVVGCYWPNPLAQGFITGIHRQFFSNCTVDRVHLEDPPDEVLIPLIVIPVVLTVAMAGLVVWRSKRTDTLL

[1] = Heat accelerated stability assay, 40° C., detection on 7 d and 28 d; format: physicochemical; settings: for Purity from the reversed phase chromatography-214 nm, 0 d / Purity from the reversed phase chromatography-214 nm, 7 d / Purity from the reversed phase chromatography-214 nm, 28 d: 1 mg/mL, pH about 7.4, 40° C.; for Change (7 d − 0 d): purity on 7 d − purity on 0 d; for Change (7 d − 0 d) / Change (28 d − 0 d): 40° C., pH about 7.4; for Change (28 d − 0 d): purity on 28 d − purity on 0 d
Procedure: The derivatives (1 mg/mL) were mixed with sodium dihydrogen phosphate (1.42 mg/mL) and dissolved in ultrapure water. After adjusting pH to about 7.4 with hydrochloric acid/sodium hydroxide, the solution was filtered into a sterilized vial in a clean bench using a 0.22 μm sterile filter. The vial was then capped and placed into the stability test chamber at 40° C. Detections were made on Days 7 (7d) and 28 (28d), and during the assay, changes in the characteristics and properties of the polypeptides were observed and recorded. The sample was then centrifuged for 3 min at 10000 rpm at 4° C., and the supernatant was transferred to a liquid phase sample vial for detecting the concentration and purity of the polypeptides using liquid phase chromatography described as below.
Conditions of the reversed phase chromatography Flow rate: 1.0 mL/min; Autosampler temperature: 15° C.; Column temperature: 25° C.; Detection wavelength: 214 nm; Mobile phase A: 100% H2O+0.05% TFA; Mobile phase B: 100% ACN; and Gradient of elution listed in Table 4: […]

Row | Compound | Relative activity (human amylin receptors) [%] | EC50 (human amylin receptors) [nM] | Purity from the reversed phase chromatography-214 nm, 0 d [1] | Purity from the reversed phase chromatography-214 nm, 7 d [1] | Purity from the reversed phase chromatography-214 nm, 28 d [1] | Change (7 d − 0 d) [1] | Change (28 d − 0 d) [1] | Purity from the reversed phase chromatography-214 nm, 0 d ([1]; in % (unit assumed)) | Purity from the reversed phase chromatography-214 nm, 7 d ([1]; in % (unit assumed)) | Change (28 d − 0 d) ([1]; in % (unit assumed))
1 | CC[C@H](C)[C@H](NC(=O)[C@H](CC(=O)O)NC(=O)[C@H](CCCNC(=N)N)NC(=O)[C@H](CC(=O)O)NC(=O)[C@H](CCCNC(=N)N)NC(=O)[C@H](CC(=O)O)NC(=O)[C@@H](NC(=O)[C@H](Cc1ccccc1)NC(=O)[C@H](Cc1c[nH]cn1)NC(=O)[C@H](CCCNC(=N)N)NC(=O)[C@H](CC(C)C)NC(=O)[C@H](Cc1ccccc1)NC(=O)[C@H](CC(=O)O)NC(=O)[C@H](C)NC(=O)[C@H](CC(C)C)NC(=O)[C@H](CCCNC(=N)N)NC(=O)CNC(=O)[C@H](CC(C)C)NC(=O)[C@@H](NC(=O)[C@H](C)NC(=O)[C@@H](NC(=O)[C@H](CO)NC(=O)[C@H](CC(C)C)NC(=O)[C@H](CCC(N)=O)NC(=O)[C@H](CO)NC(=O)[C@H](C)NC(=O)CC[C@H](NC(=O)CCCCCCCCCCCCCCCCCCC(=O)O)C(=O)O)[C@@H](C)O)C(C)C)[C@@H](C)O)C(=O)N[C@@H](CC(C)C)C(=O)N1CCC[C@H]1C(=O)N1CCC[C@H]1C(=O)N[C@H](C(=O)N[C@@H](CC(N)=O)C(=O)N[C@H](C(=O)NCC(=O)N[C@@H](CO)C(=O)N[C@@H](CC(N)=O)C(=O)N[C@H](C(=O)N1CCC[C@H]1C(N)=O)[C@@H](C)O)C(C)C)[C@@H](C)O [M4] ({C20 diacid-γGlu}-ASQLSTAVLGRLADFLRHFTDRDRDILPPTNVGSNTP-NH2) | 32 | 0.081 | 95 | 94.22 | 92.25 | −0.78 | −2.75 | – | – | –
2 | CC[C@H](C)[C@H](NC(=O)[C@@H]1CCCN1C(=O)[C@H](CCCCN)NC(=O)[C@H](CC(C)C)NC(=O)C(C)(CC(N)=O)NC(=O)[C@H](CC(N)=O)NC(=O)[C@H](CO)NC(=O)[C@H](CO)NC(=O)[C@H](Cc1c[nH]cn1)NC(=O)[C@H](CCCNC(=N)N)NC(=O)[C@H](CC(C)C)NC(=O)[C@H](Cc1ccccc1)NC(=O)[C@H](CC(=O)O)NC(=O)[C@H](C)NC(=O)[C@H](CC(C)C)NC(=O)[C@H](CCCNC(=N)N)NC(=O)[C@H](CCC(N)=O)NC(=O)[C@@H](NC(=O)[C@H](C)NC(=O)[C@H](C)NC(=O)[C@@H](NC(=O)[C@H](CO)NC(=O)[C@H](CC(C)C)NC(=O)[C@H](CCC(N)=O)NC(=O)[C@H](CO)NC(=O)[C@H](C)NC(=O)CC[C@H](NC(=O)CCCCCCCCCCCCCCCCCCC(=O)O)C(=O)O)[C@@H](C)O)[C@@H](C)O)C(=O)N[C@@H](CC(C)C)C(=O)N1CCC[C@H]1C(=O)N1CCC[C@H]1C(=O)N[C@H](C(=O)N[C@@H](CC(N)=O)C(=O)N[C@H](C(=O)NCC(=O)N[C@@H](CO)C(=O)N[C@@H](CC(N)=O)C(=O)N[C@H](C(=O)N1C[C@H](O)C[C@H]1C(N)=O)[C@@H](C)O)C(C)C)[C@@H](C)O (stereo partly drawn) [M55] ({C20 diacid-γGlu}-ASQLSTAATQRLADFLRHSSN[ξαMeN]LKPILPPTNVGSNT[Hyp]-NH2) | 233 | – | – | – | – | – | – | – | – | –
3 | M10: ASQLSTAVLQRLADFLRHFTDRDRDILPPTNVGSNTP-NH2 (SEQ ID No. 10), N-terminal side chain C20 diacid + γGlu ({C20 diacid-γGlu}-ASQLSTAVLQRLADFLRHFTDRDRDILPPTNVGSNTP-NH2; SMILES CC[C@H](C)[C@H](NC(=O)[C@H](CC(=O)O)NC(=O)[C@H](CCCNC(=N)N)NC(=O)[C@H](CC(=O)O)NC(=O)[C@H](CCCNC(=N)N)NC(=O)[C@H](CC(=O)O)NC(=O)[C@@H](NC(=O)[C@H](Cc1ccccc1)NC(=O)[C@H](Cc1c[nH]cn1)NC(=O)[C@H](CCCNC(=N)N)NC(=O)[C@H](CC(C)C)NC(=O)[C@H](Cc1ccccc1)NC(=O)[C@H](CC(=O)O)NC(=O)[C@H](C)NC(=O)[C@H](CC(C)C)NC(=O)[C@H](CCCNC(=N)N)NC(=O)[C@H](CCC(N)=O)NC(=O)[C@H](CC(C)C)NC(=O)[C@@H](NC(=O)[C@H](C)NC(=O)[C@@H](NC(=O)[C@H](CO)NC(=O)[C@H](CC(C)C)NC(=O)[C@H](CCC(N)=O)NC(=O)[C@H](CO)NC(=O)[C@H](C)NC(=O)CC[C@H](NC(=O)CCCCCCCCCCCCCCCCCCC(=O)O)C(=O)O)[C@@H](C)O)C(C)C)[C@@H](C)O)C(=O)N[C@@H](CC(C)C)C(=O)N1CCC[C@H]1C(=O)N1CCC[C@H]1C(=O)N[C@H](C(=O)N[C@@H](CC(N)=O)C(=O)N[C@H](C(=O)NCC(=O)N[C@@H](CO)C(=O)N[C@@H](CC(N)=O)C(=O)N[C@H](C(=O)N1CCC[C@H]1C(N)=O)[C@@H](C)O)C(C)C)[C@@H](C)O) | – | – | – | – | 93.8% | 0.16% | – | 94.73 | 94.89 | −0.93

The next lines start with results.

Row | Relative activity (human amylin receptors) [%] | EC50 (human amylin receptors) [nM] | Purity from the reversed phase chromatography-214 nm, 0 d [1] | Purity from the reversed phase chromatography-214 nm, 7 d [1] | Purity from the reversed phase chromatography-214 nm, 28 d [1] | Change (7 d − 0 d) [1] | Change (28 d − 0 d) [1] | Compound | Purity from the reversed phase chromatography-214 nm, 0 d ([1]; in % (unit assumed)) | Purity from the reversed phase chromatography-214 nm, 7 d ([1]; in % (unit assumed)) | Change (28 d − 0 d) ([1]; in % (unit assumed))
4 | 68 | 0.038 | 85.15 | 85.16 | 85.44 | 0.01 | 0.29 | CC[C@H](C)[C@H](NC(=O)[C@@H]1CCCN1C(=O)[C@H](CCCCN)NC(=O)[C@H](CC(C)C)NC(=O)[C@H](CC(N)=O)NC(=O)[C@H](CC(N)=O)NC(=O)[C@H](CO)NC(=O)[C@H](CO)NC(=O)[C@H](Cc1c[nH]cn1)NC(=O)[C@H](CCCNC(=N)N)NC(=O)[C@H](CC(C)C)NC(=O)[C@H](Cc1ccccc1)NC(=O)[C@H](CC(=O)O)NC(=O)[C@H](C)NC(=O)[C@H](CC(C)C)NC(=O)[C@H](CCCNC(=N)N)NC(=O)CNC(=O)[C@H](CC(C)C)NC(=O)[C@@H](NC(=O)[C@H](C)NC(=O)[C@@H](NC(=O)[C@H](CO)NC(=O)[C@H](CC(C)C)NC(=O)[C@H](CCC(N)=O)NC(=O)[C@H](CO)NC(=O)[C@H](C)NC(=O)CC[C@H](NC(=O)CCCCCCCCCCCCCCCCCCC(=O)O)C(=O)O)[C@@H](C)O)C(C)C)C(=O)N[C@@H](CC(C)C)C(=O)N1CCC[C@H]1C(=O)N1CCC[C@H]1C(=O)N[C@H](C(=O)N[C@@H](CC(N)=O)C(=O)N[C@H](C(=O)NCC(=O)N[C@@H](CO)C(=O)N[C@@H](CC(N)=O)C(=O)N[C@H](C(=O)N1C[C@H](O)C[C@H]1C(N)=O)[C@@H](C)O)C(C)C)[C@@H](C)O [M2] ({C20 diacid-γGlu}-ASQLSTAVLGRLADFLRHSSNNLKPILPPTNVGSNT[Hyp]-NH2) | – | – | –
5 | 84 | 0.031 | 92.36 | 91.35 | 91.34 | −1.01 | −1.02 | CC[C@H](C)[C@H](NC(=O)[C@@H]1CCCN1C(=O)[C@H](CCCCN)NC(=O)[C@H](CC(C)C)NC(=O)[C@H](CC(N)=O)NC(=O)[C@H](CC(N)=O)NC(=O)[C@H](CO)NC(=O)[C@H](CO)NC(=O)[C@H](Cc1c[nH]cn1)NC(=O)[C@H](CCCNC(=N)N)NC(=O)[C@H](CC(C)C)NC(=O)[C@H](Cc1ccccc1)NC(=O)[C@H](CC(=O)O)NC(=O)[C@H](C)NC(=O)[C@H](CC(C)C)NC(=O)[C@H](CCCNC(=N)N)NC(=O)[C@H](CCC(N)=O)NC(=O)[C@@H](NC(=O)[C@H](C)NC(=O)[C@H](C)NC(=O)[C@@H](NC(=O)[C@H](CO)NC(=O)[C@H](CC(C)C)NC(=O)[C@H](CCC(N)=O)NC(=O)[C@H](CO)NC(=O)[C@H](C)NC(=O)CC[C@H](NC(=O)CCCCCCCCCCCCCCCCCCC(=O)O)C(=O)O)[C@@H](C)O)[C@@H](C)O)C(=O)N[C@@H](CC(C)C)C(=O)N1CCC[C@H]1C(=O)N1CCC[C@H]1C(=O)N[C@H](C(=O)N[C@@H](CC(N)=O)C(=O)N[C@H](C(=O)NCC(=O)N[C@@H](CO)C(=O)N[C@@H](CC(N)=O)C(=O)N[C@H](C(=O)N1C[C@H](O)C[C@H]1C(N)=O)[C@@H](C)O)C(C)C)[C@@H](C)O [M5] ({C20 diacid-γGlu}-ASQLSTAATQRLADFLRHSSNNLKPILPPTNVGSNT[Hyp]-NH2) | – | – | –
